From patent publication US10111936B2, “Metal-glycoprotein complexes and photodynamic therapy of immune privileged sites with same” (Theralase Technologies, Inc., priority 2015, dated 2018)
Where two headings read alike, the source gives them in different places.

Columns and labels:
[1] = In vivo tissue uptake, tumor versus muscle; conditions: 10 mg/kg i.v.; transferrin 1 mg/kg
Description: Transferrin was dissolved in 40% PG in phosphate buffer (pH=7.0)+100 mM NaCl (0.1 mg/100 uL) and added to the photosensitizer solution (to achieve 10 mg/kg dose). The mixture was incubated for 1 hour prior to injection, and 100 uL of the mixture was injected i.v. to each animal.

AY27 cancer cell line = test: In vitro dark toxicity, Presto Blue cell kill; format: cell-based; conditions: 0.4 mg/mL human transferrin, 30 minutes
Description: (§1) The photosensitizer was pre-mixed with 0.4 mg/mL human transferrin and incubated for 1 hour at 37° C. In control group (no additional transferrin), equivalent volume of no-transferrin medium was added. The cells were subsequently incubated with the pre-mixes for 30 minutes (FIG. 12A) or 90 minutes (FIG. 12B). After that, the medium was replaced with a fresh one (without photosensitizer and transferrin). On the next day (21 hours post-irradiation), viability of the cells was measured using Presto Blue viability assay, and percent of cell kill was calculated.
as §1, with “minutes.” for “minutes (FIG. 12A) or 90 minutes (FIG. 12B).”

Subcutaneous tumors = test: In vivo PDT of subcutaneous tumors in mouse thighs
Description: Subcutaneous tumors were grown in mouse thighs and PDT (808 nm, 600 Jcm^−2) was performed when tumor reached 5×5 mm in size. Mice were sacrificed if tumor continued to grow after PDT treatment and reached 10×10 mm.
Subcutaneous tumors were grown in mouse thighs and PDT (635 nm, 192 Jcm^−2) was performed when tumor reached 5×5 mm in size. Mice were sacrificed if tumor continued to grow after PDT treatment and reached 10×10 mm.
Subcutaneous tumors were grown in mouse thighs and PDT (525 nm, 90 Jcm^−2) was performed when tumor reached 5×5 mm in size. Mice were sacrificed if tumor continued to grow after PDT treatment and reached 10×10 mm.

[2] = Photobleaching / absorbance stability; format: physicochemical; conditions: 525 nm laser; 0.8 mg/mL transferrin
Description: Photobleaching was measured: (a) at wavelength in visible range maximal for each photosensitizer. This allows to estimate dynamics of amount of unbleached photosensitizer during irradiation; and (b) at 530, 635 and 808 nm. This allows estimating dynamics of unbleached photosensitizer available to exert PDT effect at these wavelengths as practically useful for PDT treatments.
(§2) Photosensitizers (10 uM) were dissolved in phosphate buffer+100 mM NaCl (pH=7.0) alone or in a buffer with 0.8 mg/mL of transferrin at a total volume of 1 mL. The mixture was then exposed to a 525 nm laser source (130 mW) and the absorbance at the maximal absorbance in visible range (432 nm for TLD1433, 425 nm for TLD143310 and 562 nm for TLDOsH2dppn) was measured at specific time points. The plot represents the absorbance ratio (absorbance of exposed samples/absorbance of unexposed sample) as a function of the number of incident photons per cm^−2. Decreasing absorbance ratio signifies bleaching of the photosensitizer.
as §2, with “530” for “the maximal absorbance in visible range (432”, “nm” for “nm for TLD1433, 425 nm for TLD143310 and 562 nm for TLDOsH2dppn)”
as §2, with “635” for “the maximal absorbance in visible range (432”, “nm” for “nm for TLD1433, 425 nm for TLD143310 and 562 nm for TLDOsH2dppn)”, “photosensitizer. […]” for “photosensitizer.”

[3] = 530 nm, 90 J cm−2, no transferrin
[4] = 650 nm, 90 J cm−2, no transferrin

[Os+2].c1ccc2cc3nc4c5cccnc5c5ncccc5c4nc3cc2c1.c1ccc2nc(-c3ccc4ccccc4n3)ccc2c1.c1ccc2nc(-c3ccc4ccccc4n3)ccc2c1 [TLDOsH2dppn]
uptake of the photosensitizer into tissues, effect of transferrin [1]: increases uptake
dark toxicity, effect of transferrin (AY27 cancer cell line): decreases dark toxicity
Survival by day 80 (Subcutaneous tumors; PDT 525 nm, 90 Jcm−2, with transferrin): 78%
Survival by day 80 (Subcutaneous tumors; PDT 525 nm, 90 Jcm−2, without transferrin): 37%
Survival by day 80 (Subcutaneous tumors; PDT 635 nm, 192 Jcm−2, with transferrin): 75%
Survival by day 80 (Subcutaneous tumors; PDT 635 nm, 192 Jcm−2, without transferrin): 35%
Survival by day 80 (Subcutaneous tumors; PDT 808 nm, 600 Jcm−2, with transferrin): 80%
Survival by day 80 (Subcutaneous tumors; PDT 808 nm, 600 Jcm−2, without transferrin): 40%
Therapeutic Ratio (AY27 cells; [3]): 1639.8
Therapeutic Ratio (AY27 cells; 530 nm, 90 J cm−2, transferrin): 5531.9
Therapeutic Ratio (AY27 cells; [4]): 28.7
Therapeutic Ratio (AY27 cells; 650 nm, 90 J cm−2, transferrin): 61.7
Therapeutic Ratio (U87 cells; [3]): 1307.3
Therapeutic Ratio (U87 cells; 530 nm, 90 J cm−2, transferrin): 5238.0
Therapeutic Ratio (U87 cells; [4]): 15.3
Therapeutic Ratio (U87 cells; 650 nm, 90 J cm−2, transferrin): 50.3
photobleaching, absorbance ratio at 530 nm [2]: bleaching of the photosensitizers was reduced
photobleaching, absorbance ratio at 635 nm [2]: bleaching of the photosensitizers was reduced
photobleaching, absorbance ratio at 808 nm [2]: bleaching of the photosensitizers was reduced
